How the values were obtained:
Mtb fumarase = Mtb fumarase (Mycobacterium tuberculosis, UniProt P9WN93); test: Biochemical assay of Mtb fumarase enzymatic activity; details: for Inhibition (%) at 50 μM: 50 μM ligand concentration
[1] = system: H37Rv Mycobacterium tuberculosis; test: Antimicrobial susceptibility testing; assay type: cell-based; details: for bactericidal activity: H37Rv Mtb
Mtb = details: cited from earlier work

Chain of Mtb fumarase (P9WN93 whole entry): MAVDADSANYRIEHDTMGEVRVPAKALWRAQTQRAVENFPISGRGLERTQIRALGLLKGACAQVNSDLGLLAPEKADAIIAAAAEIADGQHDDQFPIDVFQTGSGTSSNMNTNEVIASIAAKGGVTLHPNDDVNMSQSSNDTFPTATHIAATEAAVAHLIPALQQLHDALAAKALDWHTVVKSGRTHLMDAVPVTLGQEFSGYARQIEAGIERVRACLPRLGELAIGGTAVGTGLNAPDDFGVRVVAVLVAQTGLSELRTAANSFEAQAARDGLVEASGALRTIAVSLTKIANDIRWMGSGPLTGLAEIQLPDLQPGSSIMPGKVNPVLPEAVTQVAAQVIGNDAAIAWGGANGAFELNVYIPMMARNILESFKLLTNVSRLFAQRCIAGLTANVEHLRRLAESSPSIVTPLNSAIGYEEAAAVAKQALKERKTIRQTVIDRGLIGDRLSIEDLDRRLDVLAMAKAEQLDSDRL

COc1ccc(S(=O)(=O)N2CCCCCC2)cc1NC(=O)Cc1coc2ccccc12 [Compound 15d, N-(5-(Azepan-1-ylsulfonyl)-2-methoxyphenyl)-2-(benzofuran-3-yl)acetamide]
Inhibition (%) at 50 μM (Mtb fumarase): failed to provide inhibition

COc1ccc(S(=O)(=O)N2CCCCCCC2)cc1NC(=O)Cc1n[nH]c(=O)c2ccccc12 [Compound 16b, N-(5-(Azocan-1-ylsulfonyl)-2-methoxyphenyl)-2-(4-oxo-3,4-dihydrophthalazin-1-yl)acetamide]
H37Rv Mtb MIC ([1]; 7H9/DPPC medium): highly active
bactericidal activity [1]: activity was observed

COc1ccc(S(=O)(=O)N2CCCCCC2)cc1NC(=O)Cc1ccncc1 [Compound 15i, N-(5-(Azepan-1-ylsulfonyl)-2-methoxyphenyl)-2-(pyridin-4-yl)acetamide]
Inhibition (%) at 50 μM (Mtb fumarase): eliminated inhibitory activity

COc1ccc(S(=O)(=O)N2CCCCCC2)cc1NC(=O)Cc1nnc(O)c2ccccc12 [Compound 1, N-(5-(Azepan-1-ylsulfonyl)-2-methoxyphenyl)-2-(4-oxo-3,4-dihydrophthalazin-1-yl)acetamide]
bactericidal activity [1]: no bactericidal activity
bactericidal properties (Mtb): did not exhibit bactericidal properties

COc1ccc(S(=O)(=O)N2CCc3ccccc3CC2)cc1NC(=O)Cc1n[nH]c(=O)c2ccccc12 [Compound 16l, N-(2-Methoxy-5-((1,2,4,5-tetrahydro-3H-benzo[d]azepin-3-yl)sulfonyl)phenyl)-2-(4-oxo-3,4-dihydrophthalazin-1-yl)acetamide]
IC50 fold lower than that of 1 (Mtb fumarase; relative to 1 (IC50 2.0 μM)): 3 fold

COc1ccc(S(=O)(=O)N2CCCCCC2)cc1NC(=O)Cc1noc2ccccc12 [Compound 15e, N-(5-(Azepan-1-ylsulfonyl)-2-methoxyphenyl)-2-(benzo[d]isoxazol-3-yl)acetamide]
Inhibition (%) at 50 μM (Mtb fumarase): failed to provide inhibition

COc1ccc(S(=O)(=O)N2CCCCCC2)cc1NC(=O)Cn1cnc2ccccc21 [Compound 15f, N-(5-(Azepan-1-ylsulfonyl)-2-methoxyphenyl)-2-(1H-benzo[d]imidazol-1-yl)acetamide]
Inhibition (%) at 50 μM (Mtb fumarase): failed to provide inhibition

Source: PMC10478077 (Journal of medicinal chemistry, 2019)
